Test results taken from patent US12492181B2, “Gem-disubstituted piperidine melanocortin subtype-2 receptor (MC2R) antagonists and uses thereof” (Crinetics Pharmaceuticals, Inc., priority 2019, dated 2025).

Molecular target: T1, hMC2 receptor (crude hMC2R membranes from CRE-bla-CHO-K1 cells stably expressing hMC2 receptor and hMRAP accessory protein) (Homo sapiens, UniProt Q01718)
T1 construct: crude membrane fractions
Assay: hMC2 membrane binding assay ([125I]ACTH (1-39) Tyr23, SPA)
Settings: displacement of 0.2 nM [125I]ACTH (1-39) Tyr23 from hMC2R membranes, 1.5 hours at room temperature; read-out: MC2R binding potency
In short: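 Ki values come from non-linear regression of SPA scintillation counts, with compounds displacing [125I]ACTH(1-39) Tyr23. Membranes come from CRE-bla-CHO-K1 cells stably expressing hMC2 receptor together with hMRAP. They are preincubated with WGA-coated PVT SPA beads in 50 mM HEPES pH 7.4 with 0.20% BSA, Mg2+, Ca2+ and protease inhibitors.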

T1 sequence (Q01718 whole entry): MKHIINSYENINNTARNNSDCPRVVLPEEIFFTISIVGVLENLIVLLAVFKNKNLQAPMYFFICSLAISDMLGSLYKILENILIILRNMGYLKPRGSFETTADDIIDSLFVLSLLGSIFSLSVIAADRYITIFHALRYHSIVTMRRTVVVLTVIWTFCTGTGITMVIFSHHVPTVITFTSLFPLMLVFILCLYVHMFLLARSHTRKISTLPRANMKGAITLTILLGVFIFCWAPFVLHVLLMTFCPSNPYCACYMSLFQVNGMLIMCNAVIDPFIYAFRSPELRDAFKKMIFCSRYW
T1 sequence (Q8TCY5 whole entry partner): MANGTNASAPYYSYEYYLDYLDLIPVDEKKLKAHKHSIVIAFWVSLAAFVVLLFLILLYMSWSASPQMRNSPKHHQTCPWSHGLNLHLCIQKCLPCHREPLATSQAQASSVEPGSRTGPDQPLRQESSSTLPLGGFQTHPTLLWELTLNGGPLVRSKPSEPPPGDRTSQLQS

Ki [nM] | SMILES
< 10 | CCOc1ncccc1-c1ccc(C2(C(=O)NCCNC)CCN(c3ccc(C(F)(F)F)cc3C#N)CC2)cc1 [Compound 1-7, 1-[2-cyano-4-(trifluoromethyl)phenyl]-4-[4-(2-ethoxypyridin-3-yl)phenyl]-N-[2-(methylamino)ethyl]piperidine-4-carboxamide]
< 10 | COc1ccccc1-c1ccc(C2(NC(=O)N[C@H]3CCN(C)C3)CCN(c3ccc(C(F)(F)F)cc3C#N)CC2)cn1 [Compound 2-55, 1-{1-[2-cyano-4-(trifluoromethyl)phenyl]-4-[6-(2-methoxyphenyl)pyridin-3-yl]piperidin-4-yl}-3-[(3S)-1-methylpyrrolidin-3-yl]urea]
10 to 100 | CN1CC[C@@H](NC(=O)C2(c3ccc(-c4ccccc4CC#N)nc3)CCN(c3ccc(C(F)(F)F)cc3C#N)CC2)C1 [Compound 1-137, 1-[2-cyano-4-(trifluoromethyl)phenyl]-4-{6-[2-(cyanomethyl)phenyl]pyridin-3-yl}-N-[(3R)-1-methylpyrrolidin-3-yl]piperidine-4-carboxamide]
< 10 | CCOc1ncccc1-c1ccc(C2(NC(=O)[C@H]3CCN(C)C3)CCN(c3ccc(Cl)cc3C#N)CC2)cn1 [Compound 2-39, (3S)—N-[1-(4-chloro-2-cyanophenyl)-4-{2′-ethoxy-[2,3′-bipyridin]-5-yl}piperidin-4-yl]-1-methylpyrrolidine-3-carboxamide]
< 10 | CC(=O)c1sccc1-c1ccc(C2(C(=O)N[C@H]3CCN(C)C3)CCN(c3ccc(C(F)(F)F)cc3C#N)CC2)cn1 [Compound 1-146, 4-[6-(2-acetylthiophen-3-yl)pyridin-3-yl]-1-[2-cyano-4-(trifluoromethyl)phenyl]-N-[(3S)-1-methylpyrrolidin-3-yl]piperidine-4-carboxamide]
< 10 | CCOc1ncccc1-c1ncc(C2(C(=O)NCCN(C)C)CCN(c3ccc(C(F)(F)F)cc3C#N)CC2)cc1F [Compound 1-308, 1-[2-cyano-4-(trifluoromethyl)phenyl]-N-[2-(dimethylamino)ethyl]-4-{2′-ethoxy-3-fluoro-[2,3′-bipyridin]-5-yl}piperidine-4-carboxamide]
< 10 | CCOc1ccccc1-c1ccc(C2(NC(=O)C3CN(C)C3)CCN(c3ccc(Cl)cc3C#N)CC2)cn1 [Compound 2-25, N-[1-(4-chloro-2-cyanophenyl)-4-[6-(2-ethoxyphenyl)pyridin-3-yl]piperidin-4-yl]-1-methylazetidine-3-carboxamide]
< 10 | CCOc1ncccc1-c1ccc(C2(C(=O)N[C@H]3CCN(C)C3)CCN(c3ccc(C(F)(F)F)cc3)CC2)cn1 [Compound 1-33, 4-{2′-ethoxy-[2,3′-bipyridin]-5-yl}-N-[(3S)-1-methylpyrrolidin-3-yl]-1-[4-(trifluoromethyl)phenyl]piperidine-4-carboxamide]
< 10 | COc1ccccc1-c1ccc(C2(C(=O)NCCN(C)C)CCN(c3ccc(C(F)(F)F)cc3C#N)CC2)cn1 [Compound 1-212, 1-[2-cyano-4-(trifluoromethyl)phenyl]-N-[2-(dimethylamino)ethyl]-4-[6-(2-methoxyphenyl)pyridin-3-yl]piperidine-4-carboxamide]
< 10 | CCOc1ncccc1-c1ccc(C2(NC(=O)[C@@H]3CCNC3)CCN(c3ccc(C(F)(F)F)cc3C#N)CC2)cn1 [Compound 2-6, (3R)—N-{1-[2-cyano-4-(trifluoromethyl)phenyl]-4-{2′-ethoxy-[2,3′-bipyridin]-5-yl}piperidin-4-yl}pyrrolidine-3-carboxamide]
10 to 100 | CN1CC[C@H](NC(=O)C2(c3ccc(-c4ncoc4C4CC4)nc3)CCN(c3ccc(C(F)(F)F)cc3C#N)CC2)C1 [Compound 1-182, 1-[2-cyano-4-(trifluoromethyl)phenyl]-4-[6-(5-cyclopropyl-1,3-oxazol-4-yl)pyridin-3-yl]-N-[(3S)-1-methylpyrrolidin-3-yl]piperidine-4-carboxamide]
10 to 100 | Cn1cccc1-c1ccc(C2(C(=O)NCCCN)CCN(c3ccc(C(F)(F)F)cc3C#N)CC2)cn1 [Compound 1-205, N-(3-aminopropyl)-1-[2-cyano-4-(trifluoromethyl)phenyl]-4-[6-(1-methyl-1H-pyrrol-2-yl)pyridin-3-yl]piperidine-4-carboxamide]
< 10 | CN1CC[C@@H](NC(=O)C2(c3ccc(-c4cccnc4OC(F)F)nc3)CCN(c3ccc(C(F)(F)F)cc3C#N)CC2)C1 [Compound 1-85, 1-[2-cyano-4-(trifluoromethyl)phenyl]-4-[2′-(difluoromethoxy)-[2,3′-bipyridin]-5-yl]-N-[(3R)-1-methylpyrrolidin-3-yl]piperidine-4-carboxamide]
< 10 | CCOc1ncccc1-c1ncc(C2(C(=O)N[C@@H](C)CNC)CCN(c3ccc(C(F)(F)F)cc3F)CC2)cc1F [Compound 1-315, 4-{2′-ethoxy-3-fluoro-[2,3′-bipyridin]-5-yl}-1-[2-fluoro-4-(trifluoromethyl)phenyl]-N-[(2S)-1-(methylamino)propan-2-yl]piperidine-4-carboxamide]
10 to 100 | CN1CC[C@@H](NC(=O)C2(c3ccc(-c4cc(F)cc(F)c4)nc3)CCN(c3ccc(C(F)(F)F)cc3C#N)CC2)C1 [Compound 1-65, 1-[2-cyano-4-(trifluoromethyl)phenyl]-4-[6-(3,5-difluorophenyl)pyridin-3-yl]-N-[(3R)-1-methylpyrrolidin-3-yl]piperidine-4-carboxamide]
< 10 | CCOc1ncccc1-c1ccc(C2(C(=O)N[C@H]3CCN(C)C3)CCN(c3ccc(C(F)(F)F)cc3C#N)CC2)nn1 [Compound 1-56, 1-[2-cyano-4-(trifluoromethyl)phenyl]-4-[6-(2-ethoxypyridin-3-yl)pyridazin-3-yl]-N-[(3S)-1-methylpyrrolidin-3-yl]piperidine-4-carboxamide]
< 10 | COc1c(F)cccc1-c1ccc(C2(C(=O)N[C@@H]3CCN(C)C3)CCN(c3ccc(C(F)(F)F)cc3C#N)CC2)cn1 [Compound 1-82, 1-[2-cyano-4-(trifluoromethyl)phenyl]-4-[6-(3-fluoro-2-methoxyphenyl)pyridin-3-yl]-N-[(3R)-1-methylpyrrolidin-3-yl]piperidine-4-carboxamide]
10 to 100 | CCOc1ncccc1-c1ccc(C2(C(=O)NCCCN)CCN(c3ccc(C(F)(F)F)cc3C#N)CC2)cc1 [Compound 1-5, N-(3-aminopropyl)-1-[2-cyano-4-(trifluoromethyl)phenyl]-4-[4-(2-ethoxypyridin-3-yl)phenyl]piperidine-4-carboxamide]
< 10 | CCCOc1ccccc1-c1ccc(C2(C(=O)N[C@@H]3CCN(C)C3)CCN(c3ccc(C(F)(F)F)cc3C#N)CC2)cn1 [Compound 1-63, 1-[2-cyano-4-(trifluoromethyl)phenyl]-N-[(3R)-1-methylpyrrolidin-3-yl]-4-[6-(2-propoxyphenyl)pyridin-3-yl]piperidine-4-carboxamide]
< 10 | CCOc1ncccc1-c1ccc(C2(NC(=O)[C@@H]3CCN(C)C3)CCN(c3ccc(C(F)(F)F)cc3C#N)CC2)cn1 [Compound 2-7, (3R)—N-{1-[2-cyano-4-(trifluoromethyl)phenyl]-4-{2′-ethoxy-[2,3′-bipyridin]-5-yl}piperidin-4-yl}-1-methylpyrrolidine-3-carboxamidev]
< 10 | CCOc1ccccc1-c1ncc(C2(C(=O)NCCN(C)C)CCN(c3ccc(C(F)(F)F)cc3Cl)CC2)cc1F [Compound 1-291, 1-[2-chloro-4-(trifluoromethyl)phenyl]-N-[2-(dimethylamino)ethyl]-4-[6-(2-ethoxyphenyl)-5-fluoropyridin-3-yl]piperidine-4-carboxamide]
< 10 | CN(CCNC(=O)C1(c2ccc(-c3cccn3C)nc2)CCN(c2ccc(C(F)(F)F)cc2C#N)CC1)C1CC1 [Compound 1-266, 1-[2-cyano-4-(trifluoromethyl)phenyl]-N-{2-[cyclopropyl(methyl)amino]ethyl}-4-[6-(1-methyl-1H-pyrrol-2-yl)pyridin-3-yl]piperidine-4-carboxamide]
< 10 | CCc1ccccc1-c1ccc(C2(C(=O)N[C@H]3CCN(C)C3)CCN(c3ccc(C(F)(F)F)cc3C#N)CC2)cn1 [Compound 1-104, 1-[2-cyano-4-(trifluoromethyl)phenyl]-4-[6-(2-ethylphenyl)pyridin-3-yl]-N-[(3S)-1-methylpyrrolidin-3-yl]piperidine-4-carboxamide]
< 10 | CCOc1ncccc1-c1ccc(C2(C(=O)NC[C@H](N)CO)CCN(c3ccc(C(F)(F)F)cc3C#N)CC2)cn1 [Compound 1-28, N-[(2S)-2-amino-3-hydroxypropyl]-1-[2-cyano-4-(trifluoromethyl)phenyl]-4-{2′-ethoxy-[2,3′-bipyridin]-5-yl}piperidine-4-carboxamide]
< 10 | CN1CC[C@H](NC(=O)NC2(c3ccc(-c4cccn4C)nc3)CCN(c3ccc(C(F)(F)F)cc3C#N)CC2)C1 [Compound 2-43, 1-{1-[2-cyano-4-(trifluoromethyl)phenyl]-4-[6-(1-methyl-1H-pyrrol-2-yl)pyridin-3-yl]piperidin-4-yl}-3-[(3S)-1-methylpyrrolidin-3-yl]urea]
< 10 | CCOc1ncccc1-c1ncc(C2(C(=O)N[C@H]3CCN(C)C3)CCN(c3ccc(C(F)(F)F)cc3F)CC2)cc1F [Compound 1-201, (S)-4-(2′-ethoxy-3-fluoro-[2,3′-bipyridin]-5-yl)-1-(2-fluoro-4-(trifluoromethyl)phenyl)-N-(1-methylpyrrolidin-3-yl)piperidine-4-carboxamide]

SMILES | Ki [nM]
COc1ccccc1-c1ccc(C2(C(=O)N[C@@H]3CN4CCC3CC4)CCN(c3ccc(C(F)(F)F)cc3C#N)CC2)cn1 [Compound 1-218, N-[(3S)-1-azabicyclo[2.2.2]octan-3-yl]-1-[2-cyano-4-(trifluoromethyl)phenyl]-4-[6-(2-methoxyphenyl)pyridin-3-yl]piperidine-4-carboxamide] | < 10
